Species: Rattus norvegicus
Assay: Open TG-GATES - Regimen: Daily Repeat
Assay type: toxicity, organism-based, Sprague-Dawley
Parameters: regimen Daily Repeat, gender Male, age 6 weeks
Details: in vivo, po, route gavage; for TP / gamma-GTP / ALP / ALT / AST / CRE / Ca / Cl / DBIL / GLC / IP / K / LDH / RALB / TBIL / TC / TG: tissue Plasma; for APTT / Bas / Eos / Fbg / Ht / Lym / MCH / MCHC / MCV / Mono / PT / Plat / RBC / Ret / WBC / Neu: tissue Blood; for KIDNEY_L / KIDNEY_R / KIDNEY_TOTAL: tissue Kidney
[1] = 10 mg/kg, […], dose level Low, time 28 day
[2] = 30 mg/kg, 72 h, dose level Middle, time 3 day
[3] = 30 mg/kg, […], dose level Middle, time 7 day
[4] = 30 mg/kg, […], dose level Middle, time 14 day
[5] = 30 mg/kg, […], dose level Middle, time 28 day

Cn1c(=O)c2c(ncn2C)n(C)c1=O [CAFFEINE]
TP [1]: 6 g/dL
gamma-GTP [1]: 2.4 IU/L
TERMINAL_BW [2]: 223.8 g
APTT [2]: 20.9 s
Bas [2]: 0%
Eos [2]: 0.8%
Fbg [2]: 330 mg/dL
Ht [2]: 41.1%
Lym [2]: 84%
MCH [2]: 21.2 pg
MCHC [2]: 33.4%
MCV [2]: 63.6 fL
Mono [2]: 1.2%
PT [2]: 15.5 s
Plat [2]: 114.5 x10_4/uL
RBC [2]: 646.4 x10_4/ul
Ret [2]: 5.2%
WBC [2]: 61.4 x10_2/uL
KIDNEY_L [2]: 1 g
KIDNEY_R [2]: 1 g
KIDNEY_TOTAL [2]: 2 g
ALP [2]: 1647.8 IU/L
ALT [2]: 40 IU/L
AST [2]: 67.4 IU/L
CRE [2]: 0.2 mg/dL
Ca [2]: 10.7 mg/dL
Cl [2]: 108.8 meq/L
DBIL [2]: 0 mg/dL
GLC [2]: 179.6 mg/dL
IP [2]: 8.1 mg/dL
K [2]: 4.4 meq/L
LDH [2]: 140.2 IU/L
RALB [2]: 3.1 g/dL
TBIL [2]: 0.004 mg/dL
TC [2]: 73.8 mg/dL
TG [2]: 87.6 mg/dL
TP [2]: 5.6 g/dL
gamma-GTP [2]: 1.2 IU/L
TERMINAL_BW [3]: 245.2 g
TERMINAL_BW [4]: 286.3 g
TERMINAL_BW [5]: 380.2 g
APTT [3]: 23.2 s
Bas [3]: 0%
Eos [3]: 0.8%
Fbg [3]: 310.2 mg/dL
Lym [3]: 80.8%
MCHC [3]: 33.6%
MCV [3]: 60.9 fL
Mono [3]: 1.4%
Neu [3]: 16%
PT [3]: 15.2 s
Plat [3]: 115.9 x10_4/uL
RBC [3]: 687.8 x10_4/ul
Ret [3]: 5.4%
WBC [3]: 79 x10_2/uL
APTT [4]: 23.9 s
Bas [4]: 0%
Eos [4]: 1%
Fbg [4]: 309 mg/dL
Ht [4]: 43.4%
Lym [4]: 76.2%
MCH [4]: 19.7 pg
MCHC [4]: 33.7%
MCV [4]: 58.4 fL
Mono [4]: 2%
Neu [4]: 20%
PT [4]: 15.2 s
Plat [4]: 109.9 x10_4/uL
RBC [4]: 743.8 x10_4/ul
Ret [4]: 3.9%
WBC [4]: 108 x10_2/uL
Bas [5]: 0%
Eos [5]: 1%
Fbg [5]: 315.2 mg/dL
Ht [5]: 43.1%
Lym [5]: 79.6%
MCH [5]: 19.4 pg
MCHC [5]: 35%
MCV [5]: 55.4 fL
Mono [5]: 2.4%
PT [5]: 15.5 s
Plat [5]: 100.3 x10_4/uL
RBC [5]: 778.6 x10_4/ul
Ret [5]: 2.7%
WBC [5]: 99.4 x10_2/uL
KIDNEY_L [3]: 1 g
KIDNEY_R [3]: 1 g
KIDNEY_TOTAL [3]: 2.1 g
KIDNEY_L [4]: 1.1 g
KIDNEY_R [4]: 1.2 g
KIDNEY_TOTAL [4]: 2.3 g
KIDNEY_L [5]: 1.5 g
KIDNEY_R [5]: 1.5 g
KIDNEY_TOTAL [5]: 3 g
ALP [3]: 1455 IU/L
ALT [3]: 45.6 IU/L
AST [3]: 75.6 IU/L
CRE [3]: 0.1 mg/dL
Ca [3]: 10.4 mg/dL
Cl [3]: 106.4 meq/L
DBIL [3]: 0 mg/dL
GLC [3]: 182.4 mg/dL
IP [3]: 7.7 mg/dL
K [3]: 4.1 meq/L
LDH [3]: 158.8 IU/L
RALB [3]: 3.1 g/dL
TBIL [3]: 0.01 mg/dL
TC [3]: 74.6 mg/dL
TG [3]: 79.8 mg/dL
TP [3]: 5.7 g/dL
gamma-GTP [3]: 1.6 IU/L
ALP [4]: 1460.4 IU/L
ALT [4]: 47.6 IU/L
AST [4]: 75.6 IU/L
CRE [4]: 0.2 mg/dL
Ca [4]: 10.4 mg/dL
Cl [4]: 106.6 meq/L
DBIL [4]: 0 mg/dL
GLC [4]: 196 mg/dL
IP [4]: 7 mg/dL
K [4]: 4.2 meq/L
LDH [4]: 145.8 IU/L
RALB [4]: 3 g/dL
TBIL [4]: 0.002 mg/dL
TC [4]: 73.2 mg/dL
TG [4]: 139.6 mg/dL
TP [4]: 5.9 g/dL
gamma-GTP [4]: 2.4 IU/L
ALP [5]: 1003 IU/L
ALT [5]: 44.8 IU/L
AST [5]: 71.8 IU/L
CRE [5]: 0.2 mg/dL
Ca [5]: 10.7 mg/dL
Cl [5]: 105.2 meq/L
DBIL [5]: 0 mg/dL
GLC [5]: 189.6 mg/dL
IP [5]: 7.6 mg/dL
K [5]: 3.9 meq/L
LDH [5]: 126.6 IU/L
RALB [5]: 3.2 g/dL
TBIL [5]: 0.01 mg/dL
TC [5]: 85.8 mg/dL

— ChEMBL document CHEMBL3885861, “Open TG-GATES”
